Measurements as given in paper PMC10135964, “One Scaffold, Two Conformations: The Ring-Flip of the Messenger InsP8 Occurs under Cytosolic Conditions” (Biomolecules, 2023).
Entries after “also recorded” stand apart in the source; their conditions may differ. Where two headings read alike, the source gives them in different places.

Columns and labels:
[1] = 31P-NMR titrations of InsP8 (protonation, K+ and Mg2+ complex formation constants, HypNMR); format: physicochemical; conditions: for pH of the conformational change: 1 mM InsP8, 22 °C
Description: In order to create a system free of coordinating counterions, a batch of InsP8 was synthesized as described above, by enzymatic phosphorylation of 5PP-InsP5 and precipitation with Mg^2+, followed by Mg^2+ chelation on Amberlite® cation exchange resin. Unlike in the standard procedure, the resin was loaded with NMe4Cl instead of NH4CO3, resulting in a batch of InsP8 with non-coordinating NMe4^+ counterions. 1 mM EDTA was added to all ^31P-NMR titrations to chelate remaining traces of Mg^2+.
NMR-samples contained 1 mM InsP8, 1 mM EDTA, pH 3.0–12.5 (in H2O, steps of 0.5 pH units) and a) for the non-coordinating condition: 150 mM NMe4Cl or b) 150 mM KCl or c) 150 mM KCl and 1 mM MgCl2. Sealed glass capillaries containing 50 mM phosphonoacetic acid in D2O were added into the sample tubes for locking and chemical shift calibration.
^31P-NMR spectra were recorded at 295 K on a Bruker spectrometer (see above) operating at 600 MHz for protons and 244 MHz for phosphorous nuclei. SW: −40 ppm to −20 ppm, NS: 1024. Spectra at pH 3.0 were assigned by various 2D-NMR methods (Figure S5) and chemical shift changes were tracked across the pH range.
The data were analyzed using the HypNMR 2006 software (Hyperquad Limited, Lincoln, UK). Different possible stoichiometries were tested, and the final chemical models were selected on the basis of the σ parameter (scaled sum of square differences between predicted and experimental chemical shift values), the model confidence level estimator (chi square), and the internal consistency of data reflected in standard deviations of the formation constants. Species distribution diagrams were produced using the HySS program (Hyperquad Limited, Lincoln, UK).

[2] = 1H,13C BIRD-HMQC NMR quantification of axial vs. equatorial conformer; format: physicochemical; conditions: 50 µM, 130 mM KCl, 10 mM NaCl, 4 °C
Description: Samples for HMQC-NMR studies contained 50 µM ^13C6-labeled InsPs (InsP6/5PP-InsP5/InsP8), 2 mM bis-tris-propane, 130 mM KCl, 10 mM NaCl and 0/50/250 µM MgCl2 in D2O.
BIRD-HMQC NMR spectra were recorded at 277 K and 600 MHz (^1H frequency) on a Bruker AV-III NMR spectrometer (Bruker Biospin, Rheinstetten, Germany) using cryogenically cooled 5 mm QCI-triple resonance probe equipped with one-axis self-shielded gradients. The spectrometer was operated using topspin 3.5 pl6 software. Instrument temperature was calibrated against […] according to Findeisen et al.. Acquisition parameters were SW(^13C): 60–90 ppm, NS: 128, TD(^13C): 64.
BIRD-HMQC spectra were recorded at 277 K as described above, with samples containing 200 µM InsPs, 130 mM KCl, 10 mM NaCl, 2mM BTP in D2O. pH was set to pH* 9.5 for InsP6, pH* 8.8 for 5PP-InsP5 and pH* 8.5 for InsP8 (pH = 0.929 × pH* + 0.42 [35]). NOESY-HMQC spectra of the same samples were subsequently recorded using mixing times of 80 ms for InsP6 and 5PP-InsP5 and 200 ms for InsP8. Conformational exchange on the time-scale of the experiment created cross-peaks between corresponding peaks in different conformations, which allowed us to assign each peak of the equatorial conformer to its axial counterpart.

[3] = biological target: T1, yeast VTC2 SPX domain (residues 1–182) (Saccharomyces cerevisiae, UniProt P43585); experiment: Isothermal titration calorimetry of InsP8 binding to the VTC2 SPX domain; conditions: 25 °C, pH 7.4, 150 mM KCl, 40 mM NaCl, mean of three replicates; for Kd: read-out: dissociation constant Kd
T1 construct: The VTC2 SPX domain (residues 1–182) was expressed with a C-terminal His6-tag; His6 (C); made in house
T1 sequence (P43585 1-182): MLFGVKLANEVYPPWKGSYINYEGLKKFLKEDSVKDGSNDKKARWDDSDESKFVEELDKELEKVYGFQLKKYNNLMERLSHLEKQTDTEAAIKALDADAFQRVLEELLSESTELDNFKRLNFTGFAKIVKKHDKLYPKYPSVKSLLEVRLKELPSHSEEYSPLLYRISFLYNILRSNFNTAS
Description: The VTC2 SPX domain (residues 1–182) was expressed with a C-terminal His6-tag and purified by Ni-affinity and size-exclusion chromatography, as previously published.
Protein stocks were diluted to 300 µL with final buffer conditions: 25 mM HEPES pH 7.4, 150 mM KCl, 40 mM NaCl, 0.5 mM TCEP (ITC buffer). The exact protein concentration for each replicate was determined separately by Bradford assay. InsP8 was diluted to 500 µM in ITC buffer. For binding experiments in the presence of magnesium ions, both dilution buffers were supplemented with MgCl2 to give a final concentration of 1 mM after dilution.
ITC experiments were carried out at 25 °C in a MicroCal PEAQ-ITC calorimeter (Malvern Panalytical GmbH, Kassel, Germany), with ca. 50 µM protein in the cell and 500 µM ligand in the syringe. InsP8 was titrated into the solution in nineteen 2 µL-steps. Spacing between injections was 150 s.
The corresponding instrument software (MicroCal PEAQ-ITC Analysis) was used for baseline correction, peak integration, data fitting and determination of binding parameters.

O=P(O)(O)O[C@@H]1[C@@H](OP(=O)(O)O)[C@H](OP(=O)(O)OP(=O)(O)O)[C@@H](OP(=O)(O)O)[C@H](OP(=O)(O)OP(=O)(O)O)[C@@H]1OP(=O)(O)O [InsP8, 1,5(PP)2-InsP4]
pH of the conformational change ([1]; 150 mM K+): 8.5–9.0
pH of the transition to the equatorial conformation ([1]; 150 mM KCl and 1 mM MgCl2, 1 mM InsP8, 22 °C): ~8.5
log K, 2 K^+ + H5L^9− ↔ [K2(H5L)]^7− ([1]; 31P NMR, 22 °C, I = 0.15 M): 3.820(7)
log K, 3 K^+ + H4L^10− ↔ [K3(H4L)]^7− ([1]; 31P NMR, 22 °C, I = 0.15 M): 5.446(5)
log K, 4 K^+ + H2L^12− ↔ [K4(H2L)]^8− ([1]; 31P NMR, 22 °C, I = 0.15 M): 9.76(3)
log K, 5 K^+ + HL^13− ↔ [K5(HL)]^8− ([1]; 31P NMR, 22 °C, I = 0.15 M): 12.47(3)
log K, K^+ + H6L^8− ↔ [K(H6L)]^7− ([1]; 31P NMR, 22 °C, I = 0.15 M): 2.58(5)
log K, K^+ + H7L^7− ↔ [K(H7L)]^6− ([1]; 31P NMR, 22 °C, I = 0.15 M): 2.08(3)
log K, L^14− + 2 H^+ ↔ H2L^12− ([1]; 31P NMR, 22 °C, I = 0.15 M): 22.78(2)
log K, L^14− + 3 H^+ ↔ H3L^11− ([1]; 31P NMR, 22 °C, I = 0.15 M): 34.22(2)
log K, L^14− + 4 H^+ ↔ H4L^10− ([1]; 31P NMR, 22 °C, I = 0.15 M): 43.96(2)
log K, L^14− + 5 H^+ ↔ H5L^9− ([1]; 31P NMR, 22 °C, I = 0.15 M): 52.58(3)
log K, L^14− + 6 H^+ ↔ H6L^8− ([1]; 31P NMR, 22 °C, I = 0.15 M): 59.41(8)
log K, L^14− + 7 H^+ ↔ H7L^7− ([1]; 31P NMR, 22 °C, I = 0.15 M): 64.91(6)
log K, L^14− + 8 H^+ ↔ H8L^6− ([1]; 31P NMR, 22 °C, I = 0.15 M): 68.79(7)
log K, L^14− + H^+ ↔ HL^13− ([1]; 31P NMR, 22 °C, I = 0.15 M): 11.21(1)
log K, Mg^2+ + H2L^12− + 3 K^+ ↔ [MgK3(H2L)]^7− ([1]; 31P NMR, 22 °C, I = 0.15 M): 18.1(1)
log K, Mg^2+ + H4L^10− + 2 K^+ ↔ [MgK2(H4L)]^6− ([1]; 31P NMR, 22 °C, I = 0.15 M): 11.6(1)
log K, Mg^2+ + H5L^9− + K^+ ↔ [MgK(H5L)]^6− ([1]; 31P NMR, 22 °C, I = 0.15 M): 9.1(1)
log K, Mg^2+ + H6L^8− + K^+ ↔ [MgK(H6L)]^5− ([1]; 31P NMR, 22 °C, I = 0.15 M): 7.3(1)
log K, Mg^2+ + HL^13− + 4 K^+ ↔ [MgK4(HL)]^7− ([1]; 31P NMR, 22 °C, I = 0.15 M): 21.6(1)
log K, Mg^2+ + L^14− + 4 K^+ ↔ [MgK4L]^8− ([1]; 31P NMR, 22 °C, I = 0.15 M): 22.4(1)
negative charges carried ([1]; pH 7.4): 10–11
most abundant species ([1]; physiological pH range, 150 mM KCl and 1 mM MgCl2, 22 °C): [MgK3(H3L)]^6−
pH of the conformational change ([1]; without coordinating cations (150 mM NMe4Cl)): ~11
proportion in axial conformation ([2]; pH* 7.5 (=pH 7.4), 1 equiv. Mg2+): about 10%
proportion in axial conformation ([2]; pH* 7.5, 5 equiv. Mg2+): about half; also recorded: almost equally distributed between its axial and equatorial forms
proportion in axial conformation ([2]; pH* 8.5, without divalent cations): about half
ΔH of binding ([3]; 1 mM MgCl2): -5.9 kcal/mol
−TΔS of binding ([3]; 1 mM MgCl2): -3.3 kcal/mol
Kd ([3]; 1 mM MgCl2): 205 nM
ΔH of binding ([3]; without divalent ions): -3.5 kcal/mol
−TΔS of binding ([3]; without divalent ions): -5.2 kcal/mol
Kd ([3]; without divalent ions): 373 nM
